Paper PMC3914206

Experiments:
Type in all cases: binding
Conditions in all cases: Compound Concentration 10 µM
panel of 442 kinases [1] = target: T1, panel of 442 kinases (Homo sapiens, UniProt P09619)
T1 construct: purchased KINOMEscan
From the text: (§1) We assessed the selectivity of members of this scaffold using the KINOMEscan methodology across a near comprehensive panel of 442 kinases [[18,27]].

panel of 442 kinases [2] = target: T2, panel of 442 kinases (Homo sapiens, UniProt P10721)
T2 construct: purchased KINOMEscan
From the text: as §1

panel of 442 kinases [3] = target: T3, panel of 442 kinases (Homo sapiens, UniProt P17948)
T3 construct: purchased KINOMEscan
From the text: as §1

panel of 442 kinases [4] = target: T4, panel of 442 kinases (Homo sapiens, UniProt Q9H2X6)
T4 construct: purchased KINOMEscan
From the text: as §1

T1 sequence (P09619 33-1106): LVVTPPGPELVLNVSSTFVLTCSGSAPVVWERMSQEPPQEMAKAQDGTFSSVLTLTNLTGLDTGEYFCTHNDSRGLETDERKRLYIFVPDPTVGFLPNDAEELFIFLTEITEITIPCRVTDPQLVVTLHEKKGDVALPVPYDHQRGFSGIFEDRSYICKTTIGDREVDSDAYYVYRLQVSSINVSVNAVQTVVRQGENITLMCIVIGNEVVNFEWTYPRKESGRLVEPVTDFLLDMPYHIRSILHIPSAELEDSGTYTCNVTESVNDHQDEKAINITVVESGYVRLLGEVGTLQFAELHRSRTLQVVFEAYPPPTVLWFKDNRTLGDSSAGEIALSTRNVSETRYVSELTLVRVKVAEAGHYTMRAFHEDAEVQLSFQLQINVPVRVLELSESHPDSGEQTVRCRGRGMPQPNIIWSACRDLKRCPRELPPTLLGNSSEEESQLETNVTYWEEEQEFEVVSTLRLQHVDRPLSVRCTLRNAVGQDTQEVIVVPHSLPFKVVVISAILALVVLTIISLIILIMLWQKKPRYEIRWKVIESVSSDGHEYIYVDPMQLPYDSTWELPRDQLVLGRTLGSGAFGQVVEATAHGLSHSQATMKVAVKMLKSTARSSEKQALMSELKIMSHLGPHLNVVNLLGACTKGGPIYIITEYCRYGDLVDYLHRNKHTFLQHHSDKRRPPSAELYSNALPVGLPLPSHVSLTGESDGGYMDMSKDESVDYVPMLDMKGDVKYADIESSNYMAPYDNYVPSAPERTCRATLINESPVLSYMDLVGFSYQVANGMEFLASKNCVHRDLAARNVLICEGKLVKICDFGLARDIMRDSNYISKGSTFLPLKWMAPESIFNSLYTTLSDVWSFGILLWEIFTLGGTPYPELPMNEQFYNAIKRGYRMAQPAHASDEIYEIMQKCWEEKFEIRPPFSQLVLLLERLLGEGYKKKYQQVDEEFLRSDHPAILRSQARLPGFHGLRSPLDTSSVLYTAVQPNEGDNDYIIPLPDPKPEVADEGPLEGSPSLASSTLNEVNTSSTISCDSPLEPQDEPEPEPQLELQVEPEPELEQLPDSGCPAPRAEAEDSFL
T2 sequence (P10721 26-976): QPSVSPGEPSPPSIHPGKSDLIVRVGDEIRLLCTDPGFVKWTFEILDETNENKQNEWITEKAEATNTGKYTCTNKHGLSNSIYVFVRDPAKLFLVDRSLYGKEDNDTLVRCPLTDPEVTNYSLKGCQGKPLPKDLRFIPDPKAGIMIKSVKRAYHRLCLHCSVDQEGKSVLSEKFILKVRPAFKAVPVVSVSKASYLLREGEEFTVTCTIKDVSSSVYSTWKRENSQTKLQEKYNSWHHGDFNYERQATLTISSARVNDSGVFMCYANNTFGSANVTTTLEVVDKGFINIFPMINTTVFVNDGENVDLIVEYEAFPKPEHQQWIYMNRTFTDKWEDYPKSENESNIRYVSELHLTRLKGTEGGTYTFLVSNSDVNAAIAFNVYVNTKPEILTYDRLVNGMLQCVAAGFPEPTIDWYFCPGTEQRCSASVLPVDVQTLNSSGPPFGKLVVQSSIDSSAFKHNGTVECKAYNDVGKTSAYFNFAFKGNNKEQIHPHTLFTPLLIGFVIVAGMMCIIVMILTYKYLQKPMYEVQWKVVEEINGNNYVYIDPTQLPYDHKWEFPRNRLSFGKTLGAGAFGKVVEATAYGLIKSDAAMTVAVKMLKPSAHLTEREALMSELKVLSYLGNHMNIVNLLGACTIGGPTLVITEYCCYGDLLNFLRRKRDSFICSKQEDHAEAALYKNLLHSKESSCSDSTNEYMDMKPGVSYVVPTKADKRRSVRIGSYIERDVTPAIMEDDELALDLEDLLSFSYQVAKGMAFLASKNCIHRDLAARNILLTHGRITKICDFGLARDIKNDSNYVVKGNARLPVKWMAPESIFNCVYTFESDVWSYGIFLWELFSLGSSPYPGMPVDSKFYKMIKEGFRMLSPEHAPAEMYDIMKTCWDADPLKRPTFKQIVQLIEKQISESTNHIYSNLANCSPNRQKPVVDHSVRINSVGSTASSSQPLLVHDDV
T3 sequence (P17948 27-1338): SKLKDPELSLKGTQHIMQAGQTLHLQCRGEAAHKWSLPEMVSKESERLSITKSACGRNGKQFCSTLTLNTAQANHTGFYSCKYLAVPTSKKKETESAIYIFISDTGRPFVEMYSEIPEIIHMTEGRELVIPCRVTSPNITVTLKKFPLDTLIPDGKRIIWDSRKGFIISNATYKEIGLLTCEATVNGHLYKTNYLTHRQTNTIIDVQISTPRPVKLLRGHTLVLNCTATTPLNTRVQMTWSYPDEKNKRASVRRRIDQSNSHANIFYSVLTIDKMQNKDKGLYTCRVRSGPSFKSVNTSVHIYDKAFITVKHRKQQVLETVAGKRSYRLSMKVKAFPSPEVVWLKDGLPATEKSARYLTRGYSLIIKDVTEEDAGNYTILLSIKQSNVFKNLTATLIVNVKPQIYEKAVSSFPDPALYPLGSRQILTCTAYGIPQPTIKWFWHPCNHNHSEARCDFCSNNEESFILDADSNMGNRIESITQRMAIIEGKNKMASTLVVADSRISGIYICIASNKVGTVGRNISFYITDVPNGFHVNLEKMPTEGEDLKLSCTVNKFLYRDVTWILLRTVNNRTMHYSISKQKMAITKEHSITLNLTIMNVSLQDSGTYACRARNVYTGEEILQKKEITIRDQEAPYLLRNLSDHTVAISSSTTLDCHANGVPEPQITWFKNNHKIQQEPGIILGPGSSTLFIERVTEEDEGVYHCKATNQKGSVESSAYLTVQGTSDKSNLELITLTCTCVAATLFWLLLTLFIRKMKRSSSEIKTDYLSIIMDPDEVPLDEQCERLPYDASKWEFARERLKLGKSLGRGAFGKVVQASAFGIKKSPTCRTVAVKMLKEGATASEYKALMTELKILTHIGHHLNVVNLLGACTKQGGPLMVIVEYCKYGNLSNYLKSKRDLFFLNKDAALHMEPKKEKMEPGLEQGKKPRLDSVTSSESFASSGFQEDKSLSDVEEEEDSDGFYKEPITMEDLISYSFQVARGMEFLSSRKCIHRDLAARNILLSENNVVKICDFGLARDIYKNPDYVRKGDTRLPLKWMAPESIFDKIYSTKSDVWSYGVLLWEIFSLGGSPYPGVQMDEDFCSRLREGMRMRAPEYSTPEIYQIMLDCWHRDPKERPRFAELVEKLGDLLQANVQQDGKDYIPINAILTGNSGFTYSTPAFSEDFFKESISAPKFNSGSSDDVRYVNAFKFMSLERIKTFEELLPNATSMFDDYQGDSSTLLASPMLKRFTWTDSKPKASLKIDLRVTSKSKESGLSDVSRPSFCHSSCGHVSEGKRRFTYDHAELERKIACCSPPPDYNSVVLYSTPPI
T4 sequence (Q9H2X6 whole entry): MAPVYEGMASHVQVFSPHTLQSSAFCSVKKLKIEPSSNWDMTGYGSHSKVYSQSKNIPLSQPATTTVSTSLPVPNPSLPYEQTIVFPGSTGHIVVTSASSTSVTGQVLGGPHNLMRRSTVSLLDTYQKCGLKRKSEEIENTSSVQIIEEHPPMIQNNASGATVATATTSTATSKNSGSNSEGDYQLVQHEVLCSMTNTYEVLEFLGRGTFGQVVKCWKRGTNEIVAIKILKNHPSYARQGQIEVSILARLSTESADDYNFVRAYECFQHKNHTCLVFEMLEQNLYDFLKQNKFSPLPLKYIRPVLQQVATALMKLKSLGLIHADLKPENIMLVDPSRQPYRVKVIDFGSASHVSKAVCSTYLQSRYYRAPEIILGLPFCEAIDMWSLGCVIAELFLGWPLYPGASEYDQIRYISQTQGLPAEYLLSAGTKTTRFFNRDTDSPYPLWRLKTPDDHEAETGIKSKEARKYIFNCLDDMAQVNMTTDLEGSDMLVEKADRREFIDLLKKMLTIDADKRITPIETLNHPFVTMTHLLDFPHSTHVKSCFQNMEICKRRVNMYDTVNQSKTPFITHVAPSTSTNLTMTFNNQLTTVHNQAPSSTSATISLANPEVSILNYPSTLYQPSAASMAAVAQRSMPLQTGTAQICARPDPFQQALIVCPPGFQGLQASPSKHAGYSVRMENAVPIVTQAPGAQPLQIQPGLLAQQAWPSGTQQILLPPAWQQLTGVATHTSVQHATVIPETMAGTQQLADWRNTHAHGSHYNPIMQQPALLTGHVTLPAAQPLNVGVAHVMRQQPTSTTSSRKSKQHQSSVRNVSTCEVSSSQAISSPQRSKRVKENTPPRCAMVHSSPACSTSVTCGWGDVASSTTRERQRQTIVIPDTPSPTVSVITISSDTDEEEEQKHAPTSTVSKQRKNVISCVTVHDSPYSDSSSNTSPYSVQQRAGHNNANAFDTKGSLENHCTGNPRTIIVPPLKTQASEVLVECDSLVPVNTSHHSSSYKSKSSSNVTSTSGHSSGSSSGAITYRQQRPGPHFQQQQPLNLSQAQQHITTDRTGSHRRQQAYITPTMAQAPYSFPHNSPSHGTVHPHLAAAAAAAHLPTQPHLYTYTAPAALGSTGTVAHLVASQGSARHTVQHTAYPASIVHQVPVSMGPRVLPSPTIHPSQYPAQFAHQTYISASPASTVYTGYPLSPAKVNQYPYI

SMILES	KINOMEscan: PDGFRB (panel of 442 kinases [1])	KINOMEscan: KIT (panel of 442 kinases [2])	KINOMEscan: FLT1 (panel of 442 kinases [3])	KINOMEscan: HIPK2 (panel of 442 kinases [4])
COc1cc(C(=O)N2CCC(N3CCN(C)CC3)CC2)ccc1Nc1ncc2c(n1)N(C)c1ccccc1C(=O)N2C [15 (LRRK2-IN-1)]	100	100	100	88
COc1cc(C(=O)N2CCC(N3CCN(C)CC3)CC2)ccc1Nc1ncc2c(n1)N1CCc3cccc(c31)C(=O)N2C [Compound 24]	67	–	–	88
COc1cc(C(=O)N2CCC(N3CCN(C)CC3)CC2)ccc1Nc1ncc2c(n1)N(C1CCCC1)c1ccccc1C(=O)N2C [Compound 25, 11-cyclopentyl-2-((2-methoxy-4-(4-(4-methylpiperazin-1-yl)piperidine-1-carbonyl)phenyl)amino)-5-methyl-5H-benzo[e]pyrimido[5,4-b][1,4]diazepin-6(11H)-one]	83	91	100	100
CCOc1cc(C(=O)N2CCC(N3CCN(C)CC3)CC2)ccc1Nc1ncc2c(n1)N(C1CCCC1)c1ccccc1C(=O)N2C [Compound 26]	100	100	100	100
